These are literature values, as cited in PubChem BioAssay AID1259409 (Chemical Carcinogenesis Research Information System (CCRIS), 2018).

Structures are written as SMILES.

The subject of the data set is rodent chemically induced tumor inhibition, incidence and multiplicity. Kind of data set: CCRIS tumor inhibitor studies.

With `O=C(OC[C@@H]1O[C@H](OC(=O)c2cc(O)c(O)c(OC(=O)c3cc(O)c(O)c(O)c3)c2)[C@@H](OC(=O)c2cc(O)c(O)c(OC(=O)c3cc(O)c(O)c(O)c3)c2)[C@H](OC(=O)c2cc(O)c(O)c(OC(=O)c3cc(O)c(O)c(O)c3)c2)[C@H]1OC(=O)c1cc(O)c(O)c(OC(=O)c2cc(O)c(O)c(O)c2)c1)c1cc(O)c(O)c(OC(=O)c2cc(O)c(O)c(O)c2)c1`, the “tumour outcome (control, treated, inhibition, significance)” value runs as follows: (Carcinogen: 7,12-DIMETHYLBENZ[A]ANTHRACENE, 57-97-6, Dose [Inhibitor]: 0, 17 MG 2/WK FOR 20 WK APPLIED 20 MIN PRIOR TO EACH PROMOTER DOSE (STUDY DURATION: 22 WK), Route [Inhibitor]: DERMAL, Species: (36,?)/(36,?), Strain/Sex: CF-1/FEMALE, Target Tissue: Type of Lesion: SKIN: PAPILLOMA, Dose [Carcinogen]: 25.6 UG IN 0.2 ML ACETONE ONCE, Promoter: 12-O-TETRADECANOYLPHORBOL-13-ACETATE, 16561-29-8) 90%, 65%, 28%, not calculated; (Carcinogen: 7,12-DIMETHYLBENZ[A]ANTHRACENE, 57-97-6, Dose [Inhibitor]: 0, 20 UMOL IN 0.4 ML ACETONE 20 MIN PRIOR TO EACH PROMOTER DOSE (STUDY DURATION: 47 WK), Route [Inhibitor]: DERMAL, Species: MOUSE, Strain/Sex: CF-1/FEMALE, Target Tissue: Type of Lesion: SKIN: CARCINOMA, Dose [Carcinogen]: 100 NMOL IN 0.2 ML ACETONE ONCE) 66%, 0%, 100%, not calculated; (Carcinogen: 7,12-DIMETHYLBENZ[A]ANTHRACENE, 57-97-6, Dose [Inhibitor]: 0, 20 UMOL IN 0.4 ML ACETONE 20 MIN PRIOR TO EACH PROMOTER DOSE (STUDY DURATION: 47 WK), Route [Inhibitor]: DERMAL, Species: MOUSE, Strain/Sex: CF-1/FEMALE, Target Tissue: Type of Lesion: SKIN: PAPILLOMA, Dose [Carcinogen]: 100 NMOL IN 0.2 ML ACETONE ONCE) 94%, 23%, 76%, not calculated; (Carcinogen: 7,12-DIMETHYLBENZ[A]ANTHRACENE, 57-97-6, Dose [Inhibitor]: 0, 34 MG 2/WK FOR 2 WK APPLIED 20 MIN PRIOR TO EACH TPA DOSE (STUDY DURATION: 22 WK), Route [Inhibitor]: DERMAL, Species: MOUSE, Strain/Sex: SENCAR/FEMALE, Target Tissue: Type of Lesion: SKIN: PAPILLOMA, Dose [Carcinogen]: 6.4 UG IN 0.2 ML ACETONE ONCE, Promoter: 12-O-TETRADECANOYLPHORBOL-13-ACETATE, 16561-29-8, MEZEREIN, 34807-41-5, Promoter: 12-O-TETRADECANOYLPHORBOL-13-ACETATE, 16561-29-8, MEZEREIN, 34807-41-5) 90%, 96%, -7%, not calculated; (Carcinogen: 7,12-DIMETHYLBENZ[A]ANTHRACENE, 57-97-6, Dose [Inhibitor]: 0, 34 MG 2/WK FOR 18 WK APPLIED 20 MIN PRIOR TO EACH MEZEREIN DOSE (STUDY DURATION: 22 WK), Route [Inhibitor]: DERMAL, Species: MOUSE, Strain/Sex: SENCAR/FEMALE, Target Tissue: Type of Lesion: SKIN: PAPILLOMA, Dose [Carcinogen]: 6.4 UG IN 0.2 ML ACETONE ONCE, Promoter: 12-O-TETRADECANOYLPHORBOL-13-ACETATE, 16561-29-8, MEZEREIN, 34807-41-5, Promoter: 12-O-TETRADECANOYLPHORBOL-13-ACETATE, 16561-29-8, MEZEREIN, 34807-41-5) 90%, 25%, 72%, not calculated; (Carcinogen: (+/-)-7BETA,8ALPHA-DIHYDROXY-9ALPHA,10ALPHA-EPOXY-7,8,9,10- TETRAHYDROBENZO[A]PYRENE, 58917-67-2, Dose [Inhibitor]: 3000 NMOL IN 0.2 ML ACETONE 1/D FOR 7 D (STUDY DURATION: 18 WK), Route [Inhibitor]: DERMAL, Species: MOUSE, Strain/Sex: SENCAR/FEMALE, Target Tissue: Type of Lesion: SKIN: TUMOR, Dose [Carcinogen]: 200 NMOL IN 0.2 ML ACETONE ONCE 30 MIN POST LAST INHIBITOR DOSE, Promoter: 12-O-TETRADECANOYLPHORBOL-13-ACETATE, 16561-29-8) 75%, 60%, 20%, not significant. Moreover, the “tumour outcome (control, treated, inhibition, significance)” value is recorded as 17/50 (34%), 15/50 (30%), 12%, not significant (Carcinogen: BENZO[A]PYRENE, 50-32-8, Dose [Inhibitor]: 1% AQUEOUS SOLUTION 3/WK FOR A TOTAL OF 80 APPLICATIONS FOLLOWED BY AT LEAST 365 D OBSERVATION PERIOD (STUDY DURATION: 5, Route [Inhibitor]: DERMAL, Species: MOUSE, Strain/Sex: CD-1/MALE, FEMALE, Target Tissue: Type of Lesion: SKIN: CARCINOMA, SQUAMOUS CELL PAPILLOMA, SEBACEOUS ADENOMA, BASAL CELL TUMOR, KERATOACANTHOMA, Dose [Carcinogen]: 0.53-0.6 MG ONCE PRIOR TO START OF AGENT TREATMENT, Promoter: NONE USED); 27/30 (90%), 19/30 (63%), 30%, not calculated (Carcinogen: BENZO[A]PYRENE, 50-32-8, Dose [Inhibitor]: 1% IN DIET BEGINNING 45 D PRIOR TO CARCINOGEN (STUDY DURATION: 36 WK), Route [Inhibitor]: ORAL, Species: MOUSE, Strain/Sex: SENCAR/FEMALE, Target Tissue: Type of Lesion: FORESTOMACH: PAPILLOMA, Dose [Carcinogen]: 100 MG/KG IN 0.2 ML CORN OIL 2/WK FOR 4 WK, Promoter: NONE USED); 27/30 (90%), 18/30 (60%), 33%, not calculated (Carcinogen: BENZO[A]PYRENE, 50-32-8, Dose [Inhibitor]: 1% IN DIET BEGINNING 45 D PRIOR TO CARCINOGEN (STUDY DURATION: 36 WK), Route [Inhibitor]: ORAL, Species: MOUSE, Strain/Sex: SENCAR/FEMALE, Target Tissue: Type of Lesion: LUNG: ADENOMA, Dose [Carcinogen]: 100 MG/KG IN 0.2 ML CORN OIL ONCE, Promoter: NONE USED); 30/30 (100%), 30/30 (100%), 0%, not calculated (Carcinogen: DIMETHYLBENZ[A]ANTHRACENE, 57-97-6, Dose [Inhibitor]: 1% IN DIET BEGINNING 45 D PRIOR TO CARCINOGEN DOSE AND CONTINUED FOR 10 D POST CARCINOGEN (STUDY DURATION: 16 WK), Route [Inhibitor]: ORAL, Species: MOUSE, Strain/Sex: SENCAR/FEMALE, Target Tissue: Type of Lesion: SKIN: PAPILLOMA, Dose [Carcinogen]: 10 UG IN 0.2 ML ACETONE ONCE, Promoter: TPA, 16561-29-8); 75%, 42%, 44%, p=0.028 (Carcinogen: UV IRRADIATION, Dose [Inhibitor]: 0, 200 UG IN 200 µL ACETONE 3/WK FOR DURATION OF STUDY BEGINNING 2 WK PRIOR TO UV IRRADIATION (STUDY DURATION: 29 WK), Route [Inhibitor]: DERMAL, Species: MOUSE, Strain/Sex: BALB/CANNTACFBR/FEMALE, Target Tissue: Type of Lesion: SKIN: TUMOR, Dose [Carcinogen]: 6.94 J/M2/SEC 30 MIN/D 5 D/WK FOR 17.5 WK, Promoter: NONE USED).
